Drawing on US20240325424A1, “Pharmaceutical Compositions And Methods For Treating Neoplasia” (priority 2021, published 2024), this text covers effectiveness against virus and EC50 for one compound.

The structures appear in SMILES notation. ≈ marks a conversion by molar mass, not a printed value.

The test system of experiment [1] is avian-origin influenza A (H7N9). As to conditions: cited from earlier work.
The subject of a further experiment is RSV. Briefly: antiviral test RSV. The experiment is classed as cell-based. As to conditions: human respiratory syncytial virus.
Experiment [2] has as its system pandemic flu H1/415, A/Hong Kong/415742/2009, A(H1N1)pdm09. As to conditions: To et al. (2016); cited from earlier work.
In experiment [3] the test system is seasonal influenza A(H3N2) virus. As to conditions: To et al. (2016); cited from earlier work.
In a further experiment the test system is Influenza A H1N1. The experiment in a line: antiviral test Influenza A H1N1. As to conditions: Influenza A virus. The experiment is classed as cell-based.
The subject of a further experiment is Norovirus. Briefly: Norovirus test. The experiment is classed as cell-based.
The next experiment relates to a virus. As to conditions: virus of Chan et al., 2013, p. 612; cited from earlier work.

As to `COc1c(C)c2c(c(O)c1C/C=C(\C)CCC(=O)O)C(=O)OC2` [mycophenolic acid, 6-(4-hydroxy-6-methoxy-7-methyl-3-oxo-1,3-dihydroisobenzofuran-5-yl)-4-methyl-hex-4-enoic acid], the effectiveness against virus result in experiment [1], in experiment [2] and in experiment [3] was “effective” throughout. Besides, the EC50 (commonly the concentration at which the effect is half-maximal) with RSV is < 0.1 µg/mL; in the experiment on Influenza A H1N1, < 0.1 µg/mL; in the experiment with Norovirus it was 0.151 µg/mL (≈ 0.471 µM); in the experiment with a virus it was 0.17 µg/mL (≈ 0.531 µM).
